Measurements from ChEMBL document CHEMBL1201862, “PubChem BioAssay data set” (2004).
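A five-concentration, 48-hour dose response in 96-well plates underlies each endpoint, interpolated linearly between surrounding concentrations. Abbreviation: GI50, concentration required for 50% inhibition of growth.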 Activity calls are given as the source filed them. Cut-off read from the data, not from the text of the source: active = GI50 up to about 1.1 µM and inactive = higher.

What was measured:
Test in all cases: NCI tumour cell line growth inhibition, 48 h
DLD-1 = system: DLD-1
M19-MEL = system: M19-MEL
XF498 = system: XF498
DMS-114 = system: DMS-114
SNB-78 = system: SNB-78
HOP-18 = system: HOP-18
RXF 631 = system: RXF 631
KM-20L2 = system: KM-20L2
DMS-273 = system: DMS-273

Structure (SMILES) | GI50 (DLD-1) | GI50 (M19-MEL) | GI50 (XF498) | GI50 (DMS-114) | GI50 (SNB-78) | GI50 (HOP-18) | GI50 (RXF 631) | GI50 (KM-20L2) | GI50 (DMS-273)
CCOC(=O)/C=C/c1ccccn1 | > 100 µM (inactive) | > 100 µM (inactive) | > 100 µM (inactive) | > 100 µM (inactive) | > 100 µM (inactive) | > 100 µM (inactive) | > 100 µM (inactive) |  | 
CN(C)NC(=S)NC12CC3CC(CC(C3)C1)C2 | > 100 µM (inactive) | > 100 µM (inactive) | > 100 µM (inactive) | > 100 µM (inactive) | > 100 µM (inactive) | > 100 µM (inactive) |  | > 100 µM (inactive) | > 100 µM (inactive)
CCOC1C(Br)Cn2c(=O)c3cc4ccccc4cc3c(=O)n2C1C (centres undefined) | 54.3 µM (inactive) | 55.6 µM (inactive) | 31 µM (inactive) | 44.8 µM (inactive) | > 100 µM (inactive) |  |  | 68.9 µM (inactive) | 40.6 µM (inactive)
O=C1CCCc2c(O)ccc(O)c21 | > 100 µM (inactive) | 93.5 µM (inactive) |  | 19.9 µM (inactive) | > 100 µM (inactive) | > 100 µM (inactive) |  | > 100 µM (inactive) | > 100 µM (inactive)
COc1cccc(C=O)c1[O-].COc1cccc(C=O)c1[O-].[Zn+2] | 47 µM (inactive) | 31.8 µM (inactive) |  | 51.6 µM (inactive) | > 100 µM (inactive) | 40.9 µM (inactive) |  | > 100 µM (inactive) | 60.5 µM (inactive)
O=C1CCSC2=C1SCc1sccc12 | > 100 µM (inactive) | > 100 µM (inactive) | > 100 µM (inactive) | > 100 µM (inactive) | > 100 µM (inactive) |  |  | > 100 µM (inactive) | 
COc1ccc2c(c1)CCc1cnn(C3OC(COC(C)=O)C(OC(C)=O)C(OC(C)=O)C3OC(C)=O)c1-2 (centres undefined) | 46.8 µM (inactive) | 66.2 µM (inactive) | 22.6 µM (inactive) | 65.6 µM (inactive) | > 100 µM (inactive) |  | > 100 µM (inactive) | 22.5 µM (inactive) | > 100 µM (inactive)
CCOc1cc2c(cnc3c4cc(OC)c(OC)cc4ccc23)cc1OC | > 100 µM (inactive) | > 100 µM (inactive) | > 100 µM (inactive) | > 100 µM (inactive) |  |  |  | > 100 µM (inactive) | 
Cc1cc(N(CCC#N)CCC#N)ccc1/C=C1N=C(/C=C\c2ccccc2)N(c2ccc(Cl)cc2)C\1=O |  | 1.57 µM (inactive) | > 100 µM (inactive) | 2.13 µM (inactive) | > 100 µM (inactive) | > 100 µM (inactive) |  |  | 0.288 µM (active)
CCOC(=O)[C@H]1CSC[C@@H](C(=O)OC)N1 | > 100 µM (inactive) | > 100 µM (inactive) |  | > 100 µM (inactive) |  |  |  |  | > 100 µM (inactive)
CC(=O)Nc1ccc(/C=C2\N=C(c3ccccc3)OC2=O)cc1 | > 100 µM (inactive) |  |  | 1 µM (active) |  | > 100 µM (inactive) |  | > 100 µM (inactive) | 
CN(N=O)C(=O)ON1C(=O)CCC1=O | > 100 µM (inactive) | > 100 µM (inactive) |  | > 100 µM (inactive) | > 100 µM (inactive) | > 100 µM (inactive) |  | > 100 µM (inactive) | > 100 µM (inactive)
Clc1ccc(C2=NOC(C3CCCCC3)C2)cc1 (centres undefined) | > 100 µM (inactive) | > 100 µM (inactive) |  | > 100 µM (inactive) | > 100 µM (inactive) | > 100 µM (inactive) |  |  | > 100 µM (inactive)
O=C1CCCCC1C1(O)C(=O)Nc2cc(F)ccc21 (centres undefined) | > 100 µM (inactive) | > 100 µM (inactive) | > 100 µM (inactive) | > 100 µM (inactive) | > 100 µM (inactive) | > 100 µM (inactive) |  | > 100 µM (inactive) | > 100 µM (inactive)
O=c1cc(-c2ccccc2)[nH]c2c(F)ccc(F)c12 | > 100 µM (inactive) | 41.4 µM (inactive) |  | 28.7 µM (inactive) |  | > 100 µM (inactive) |  |  | 24.3 µM (inactive)
CCOC(=O)C(C[Si](C)(C)C)P(=O)(OCC)OCC (centres undefined) | > 100 µM (inactive) | > 100 µM (inactive) | > 100 µM (inactive) | > 100 µM (inactive) | > 100 µM (inactive) |  | > 100 µM (inactive) | > 100 µM (inactive) | > 100 µM (inactive)
COc1cc2cc3c4c(cc(OC)c(OC)c4c2cc1OC)CCN3C(=O)OCCN1CCNCC1 | 15.2 µM (inactive) | 6.95 µM (inactive) | 15.3 µM (inactive) |  | 16 µM (inactive) | 17 µM (inactive) |  | 11.8 µM (inactive) | 13.5 µM (inactive)
CN/N=C(/CCN1CCCC1)CC(c1ccccc1)c1c(O)c2ccccc2oc1=O (centres undefined) | > 100 µM (inactive) | > 100 µM (inactive) | > 100 µM (inactive) | > 100 µM (inactive) | > 100 µM (inactive) | > 100 µM (inactive) | > 100 µM (inactive) | > 100 µM (inactive) | > 100 µM (inactive)
CCCC(=O)CC(C)C(=O)C(=O)NC12CC3CC(CC(C3)C1)C2 (centres undefined) | > 100 µM (inactive) |  | > 100 µM (inactive) |  | > 100 µM (inactive) | > 100 µM (inactive) |  | > 100 µM (inactive) | > 100 µM (inactive)
N#CC1C[C@@H]2CC3(CCC2CN1C(=O)c1ccccc1)OCCO3 (some centres undefined) | > 100 µM (inactive) | > 100 µM (inactive) | > 100 µM (inactive) | > 100 µM (inactive) | > 100 µM (inactive) | > 100 µM (inactive) |  | > 100 µM (inactive) | > 100 µM (inactive)
C=CN1C(=O)OC[C@@H]1c1ccccc1 | > 100 µM (inactive) | > 100 µM (inactive) | 83 µM (inactive) | 34.5 µM (inactive) | > 100 µM (inactive) | > 100 µM (inactive) | > 100 µM (inactive) | > 100 µM (inactive) | 20 µM (inactive)
O=C1NC(O)n2c(=O)[nH]c(=O)n21 (centres undefined) | > 100 µM (inactive) | > 100 µM (inactive) | > 100 µM (inactive) |  | > 100 µM (inactive) | > 100 µM (inactive) | > 100 µM (inactive) | > 100 µM (inactive) | > 100 µM (inactive)
NC1=NNC(=O)c2nnc3c(C(=O)O)cnn3c2S1 | > 100 µM (inactive) | > 100 µM (inactive) |  | > 100 µM (inactive) |  | > 100 µM (inactive) |  | > 100 µM (inactive) | 
O=C1CC(S(=O)(=O)O)C=C1Nc1cccc(Cl)c1 (centres undefined) | > 100 µM (inactive) | > 100 µM (inactive) | > 100 µM (inactive) |  | > 100 µM (inactive) | > 100 µM (inactive) |  | > 100 µM (inactive) | > 100 µM (inactive)
O=S1(=O)c2ccccc2NC(c2ccc3ccccc3c2)CC1c1ccccc1F (centres undefined) | > 100 µM (inactive) | > 100 µM (inactive) | > 100 µM (inactive) |  |  | 22.1 µM (inactive) | > 100 µM (inactive) | > 100 µM (inactive) | > 100 µM (inactive)
O=C(CP(=O)(O)O)c1cccs1 | > 100 µM (inactive) | > 100 µM (inactive) |  | > 100 µM (inactive) | > 100 µM (inactive) | > 100 µM (inactive) |  | > 100 µM (inactive) | > 100 µM (inactive)
CC(N)Cc1ccc(Cl)c(Cl)c1 (centres undefined) | 34.4 µM (inactive) | 24.2 µM (inactive) | 10.9 µM (inactive) | 24.2 µM (inactive) | 28.4 µM (inactive) | 27.8 µM (inactive) |  | 22.9 µM (inactive) | 39.4 µM (inactive)
